From patent US5663205A, “Pharmaceutical composition for use in glaucoma treatment” (Senju Pharmaceutical Co. Ltd., priority 1992, dated 1997) come the findings set out here.

Data set [1] has as its system Normal Intraocular Pressure. Put plainly: Test Example 1 (1): intraocular pressure reducing activity on normal intraocular pressure, pigmented rabbits. Type of data set: in vivo, pigmented rabbits (Dutch belted rabbits). As to the method: Intraocular Pressure Reducing Activity of Amosulalol Hydrochloride on Normal Intraocular Pressure in Pigmented Rabbits Male pigmented rabbits (Dutch belted rabbits) weighing about 2 kg, after having been confirmed to be free from ocular abnormalities; were bred in a breeding room maintained at a temperature of 24± 4° C. and at a relative humidity of 55± 15%, while they were given solid food (Labo RG-RO manufactured by Nihon Nohsan Kogyo K.K.) at a daily rate of 100 g per rabbit and allowed free access to tap water as drinking water. As a test drug, amosulalol hydrochloride was processed into 0.05% (hereinafter, the term "%" is to be understood to designate "w/v %") and 1.0% aqueous solutions which were used in the test, and 0.5% timolol maleate ophthalmic solution [Timoptol (registered trademark): Ban-yu Pharmaceutical Co.] and physiological saline were used as a positive control drug and a control substance, respectively. (1) Measurement of intraocular pressure: Thirty two (32) rabbits were divided into four groups each consisting of 8 rabbits, and 50 μl of test drugs as well as the control drug and physiological saline were applied topically to one eye each of the individual rabbits, with the other being left untreated. Before instillation and 0.5, 1, 2, 3, 4, 6 and 8 hours after topical application,intraocular pressure for both of eyes of each rabbit was measured using a Pneumatonograph (manufactured by Alcon Co. Hereinafter referred to briefly as "PTG"). Shown in FIG. 1 are time-course changes of intraocular pressure taken with the eyes treated by instillation of each of the test drugs, control drug and physiological saline, with time (hour) after instillation taken as abscissa and intraocular pressure (mmHg as ordinate; each value in mean±S.E. (number of cases is 8). The signs "a", "b", "d" and "e" designate physiological saline, 0.05% aqueous solution of amosulalol hydrochloride, 1.0% aqueous solution of amosulalol hydrochloride, and 0.5% ophthalmic solution of timolol maleate, respectively.

The test system of the next data set is pupil diameter. Kind of data set: Test Example 1 (2): pupil diameter, pigmented rabbits. Type of data set: in vivo, pigmented rabbits (Dutch belted rabbits). As to conditions: treated eyes, 0.5 to 6 hours after topical application. The procedure: Male pigmented rabbits (Dutch belted rabbits) weighing about 2 kg, after having been confirmed to be free from ocular abnormalities; were bred in a breeding room maintained at a temperature of 24± 4° C. and at a relative humidity of 55± 15%, while they were given solid food (Labo RG-RO manufactured by Nihon Nohsan Kogyo K.K.) at a daily rate of 100 g per rabbit and allowed free access to tap water as drinking water. As a test drug, amosulalol hydrochloride was processed into 0.05% (hereinafter, the term "%" is to be understood to designate "w/v %") and 1.0% aqueous solutions which were used in the test, and 0.5% timolol maleate ophthalmic solution [Timoptol (registered trademark): Ban-yu Pharmaceutical Co.] and physiological saline were used as a positive control drug and a control substance, respectively. (2) Measurement of pupil diameter: With each of the rabbits as used under the above item (1), pupil diameter was measured for both eyes using a micrometer caliper, before instillation and 0.5, 1, 2, 3, 4, and 6 hours after topical application of the individual test drugs and physiological saline, respectively.

The subject of data set [2] is Normal Intraocular Pressure. Kind of data set: Test Example 3: intraocular pressure, consecutive application for 5 days, pigmented rabbits. It is filed as in vivo. As to conditions: 0.5% aqueous solution. The procedure: Intraocular Pressure Reducing Activity of Amosulalol Hydrochloride by Consecutive Application for 5 Days on Normal Intraocular Pressure in Pigmented Rabbits
Eight (8) male pigmented rabbits weighing about 2 kg, after having been confirmed to be free from ocular abnormalities, were bred in a breeding room maintained at a temperature of 24± 4° C. and at a relative humidity of 55± 15%, while they were given solid food (Labo RG-RO, manufactured by Nihon Nohsan Kogyo K.K.) at a daily rate of 100 g per rabbit and allowed free access to tap water as drinking water.
For the 8 pigmented rabbits bred by the above procedure, 50 μl of 0.5% aqueous solution of amosulalol hydrochloride was applied to one eye, with 50 μl of physiological saline being given topically to the other. Intraocular pressure was measured before the first instillation and at regular intervals of 1 hour up to 8 hours after application on Days 1 and 5, and before the first instillation and 2 or 3 hours after application on Days 2, 3 and 4, respectively, with intraocular pressure additionally being measured 24 hours after the first instillation on Day 5.
The signs "a" and "c" designate physiological saline, 0.5% aqueous solution of amosulalol hydrochloride, respectively.

Data set [3] relates to Hypertensive Intraocular Pressure Induced by Water Loading. Kind of data set: Test Example 4: hypertensive intraocular pressure induced by water loading, white rabbits. As to conditions: 0.5% aqueous solution. It is filed as in vivo. As to the method: Intraocular Pressure Reducing Activity of 0.5% Aqueous Solution of Amosulalol Hydrochloride on Hypertensive Itraocular Pressure Induced by Water Loading White Rabbits
With 5 male white rabbits weighing about 2 kg used as test animals, 50 μl of 0.5% aqueous solution of amosulalol hydrochloride was applied to one eye of each rabbit, with 50 μl of physiological saline being given to the other, and drinking water, 60 ml/kg (37° C.) was loaded by means of an oral probe 30 min later. Intraocular pressure was measured for both eyes using PTG before instillation as well as before water loading and 0.5, 1, 2 and 4 hours after the same.
FIG. 6 is a graph showing the intraocular pressure reducing activity of 0.5% aqueous solution of amosulalol hydrochloride on hypertensive intraocular pressure induced by water loading in white rabbits with time (hour) after instillation taken as abscissa and intraocular pressure (mmHg) as ordinate; each value in mean ± S.E. (number of cases is […]).

Data set [4] relates to Hypertensive Intraocular Pressure Induced by Laser Irradiation. Put plainly: Test Example 5: hypertensive intraocular pressure induced by laser irradiation, pigmented rabbits. Type of data set: in vivo. To be noted: 0.5% aqueous solution. As to the method:
Intraocular Pressure Reducing Activity of 0.5% Aqueous Solution of Amosulalol Hydrochloride on Hypertensive Intraocular Pressure Induced by Laser Irradiation in Pigmented Rabbits
With 5 male pigmented rabbits weighing about 2 kg used as test animals, 50 μl of 0.5% aqueous solution of amosulalol hydrochloride was applied in a 50 μl portion to one eye of each rabbit, with 50 μl of physiological saline being given to the other. 30 min later, a laser beam was irradiated onto 6 different spots (spot size: 200 μm, power of 0.5 W, for 0.1 sec) of the irises in both eyes in such a manner that the spots were located at an equal distance. Intraocular pressure was measured for both eyes using PTG before instillation as well as before laser irradiation and 15, 30 and 45 min after laser irradiation.
FIG. 7 is a graph showing the intraocular pressure reducing activity of 0.5% aqueous solution of amosulalol hydrochloride on hypertensive intraocular pressure induced by laser irradiation in pigmented rabbits, with time (min) after laser irradiation taken as abscissa and intraocular pressure (mmHg) as ordinate; each value in mean ± S.E. (the number in each case is 8). The signs "a" and "c" designate physiological saline and 0.5% aqueous solution of amosulalol hydrochloride, respectively.

As for `COc1ccccc1OCCNCC(O)c1ccc(C)c(S(N)(=O)=O)c1.Cl` (centres unmarked) [amosulalol hydrochloride, 5-[1-hydroxy-2-[2-(2-methoxyphenoxy)ethylamino]ethyl]-2-methylbenzenesulfonamide hydrochloride], the “maximum decrease in intraocular pressure” value turned out to be 3.6 mmHg in data set [1] (0.05% aqueous solution, 2 hours after topical application) and 9.0 mmHg in data set [1] (1.0% aqueous solution, 50 μl topical, 3 hours after instillation). The “decrease in intraocular pressure sustained until (time after instillation)” value in data set [1] (1.0% aqueous solution, sustained from 30 min after instillation) turned out to be 6 h. Also, the “change in pupil diameter” value with pupil diameter is “no significant change in the pupil diameter”. In addition, in data set [2] (Day 1), the “return of intraocular pressure to the initial value (time)” value was found to be 24 h. In addition, the “maximum drop in intraocular pressure” value in data set [2] (Day 1, 2 hours after the first instillation) is given as 4.8 mmHg. For the same compound, the “further decrease in intraocular pressure by second instillation” value in data set [2] (Day 1, second instillation 4 hours later) is given as “not found to bring about any further decrease in intraocular pressure”. Besides, the “decrease in intraocular pressure” value in data set [2] (Day 2, 2 hours after instillation) is “significant decrease in intraocular pressure”; in data set [2] (Day 3), “no significant intraocular pressure drop”; in data set [2] (Day 4) it was “significant decrease in intraocular pressure”; in data set [2] (Day 5, any measuring time), “almost the same degree of intraocular pressure decrease as on Day 1”. For the same compound, the tachyphylaxis entry in data set [2] (three times a day for 5 days) is on record as “free from tachyphylaxis”. Besides, the “increase in intraocular pressure after water loading” value in data set [3] (30 min after water loading, physiological saline 8.7 mmHg) was 3.4 mmHg. Also, the “effect on increase in intraocular pressure compared with physiological saline” value in data set [3] (water loading) is on record as “significantly reduced the increase in intraocular pressure”. Further, in data set [4] (30 min after instillation, immediately before laser irradiation), the “decrease in intraocular pressure before laser irradiation” value was determined as 4.5 mmHg. In addition, in data set [4] (laser irradiation), the “suppressory activity against increase of the intraocular pressure” value is listed as “exhibits suppressory activity against increase of the intraocular pressure”. In addition, the “intraocular pressure after laser irradiation” value in data set [4] (physiological saline increased by 7.9 mmHg about 15 min after irradiation) is “increased to almost the same level as before instillation”.
